{"source": "patent US9919998B2", "about": "“Antibacterial agents: Nα-aroyl-N-aryl-phenylalaninamides” (priority 2014, dated 2018)", "key": {"[1]": {"test_system": "AAP1-resistant mutants, derivatives of M. smegmatis ATCC19420", "experiment": "MICs in AAP1-resistant mutants (resistance and cross-resistance levels)", "assay_type": "cell-based, Mycobacterium smegmatis", "conditions": "MICs in AAP1-resistant mutants"}, "[2]": {"molecular_target": "Mycobacterium tuberculosis RNA polymerase (Mycobacterium tuberculosis, UniProt P9WGY7+P9WGY9)", "sequence (P9WGZ1 whole entry)": "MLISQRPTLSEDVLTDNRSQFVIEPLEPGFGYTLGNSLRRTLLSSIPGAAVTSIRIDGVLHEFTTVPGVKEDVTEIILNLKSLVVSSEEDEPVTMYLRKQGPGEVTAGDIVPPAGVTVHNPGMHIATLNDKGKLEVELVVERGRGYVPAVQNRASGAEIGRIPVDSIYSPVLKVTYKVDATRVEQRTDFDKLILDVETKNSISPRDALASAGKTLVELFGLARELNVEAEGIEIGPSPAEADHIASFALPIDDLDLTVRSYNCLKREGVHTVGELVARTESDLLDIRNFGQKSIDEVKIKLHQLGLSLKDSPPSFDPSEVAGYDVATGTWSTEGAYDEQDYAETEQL", "sequence (P9WGY5 whole entry, further chain)": "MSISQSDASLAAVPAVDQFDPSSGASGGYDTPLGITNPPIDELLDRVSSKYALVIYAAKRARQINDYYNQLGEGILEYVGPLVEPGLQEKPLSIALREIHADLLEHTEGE", "sequence (P9WGY9 whole entry)": "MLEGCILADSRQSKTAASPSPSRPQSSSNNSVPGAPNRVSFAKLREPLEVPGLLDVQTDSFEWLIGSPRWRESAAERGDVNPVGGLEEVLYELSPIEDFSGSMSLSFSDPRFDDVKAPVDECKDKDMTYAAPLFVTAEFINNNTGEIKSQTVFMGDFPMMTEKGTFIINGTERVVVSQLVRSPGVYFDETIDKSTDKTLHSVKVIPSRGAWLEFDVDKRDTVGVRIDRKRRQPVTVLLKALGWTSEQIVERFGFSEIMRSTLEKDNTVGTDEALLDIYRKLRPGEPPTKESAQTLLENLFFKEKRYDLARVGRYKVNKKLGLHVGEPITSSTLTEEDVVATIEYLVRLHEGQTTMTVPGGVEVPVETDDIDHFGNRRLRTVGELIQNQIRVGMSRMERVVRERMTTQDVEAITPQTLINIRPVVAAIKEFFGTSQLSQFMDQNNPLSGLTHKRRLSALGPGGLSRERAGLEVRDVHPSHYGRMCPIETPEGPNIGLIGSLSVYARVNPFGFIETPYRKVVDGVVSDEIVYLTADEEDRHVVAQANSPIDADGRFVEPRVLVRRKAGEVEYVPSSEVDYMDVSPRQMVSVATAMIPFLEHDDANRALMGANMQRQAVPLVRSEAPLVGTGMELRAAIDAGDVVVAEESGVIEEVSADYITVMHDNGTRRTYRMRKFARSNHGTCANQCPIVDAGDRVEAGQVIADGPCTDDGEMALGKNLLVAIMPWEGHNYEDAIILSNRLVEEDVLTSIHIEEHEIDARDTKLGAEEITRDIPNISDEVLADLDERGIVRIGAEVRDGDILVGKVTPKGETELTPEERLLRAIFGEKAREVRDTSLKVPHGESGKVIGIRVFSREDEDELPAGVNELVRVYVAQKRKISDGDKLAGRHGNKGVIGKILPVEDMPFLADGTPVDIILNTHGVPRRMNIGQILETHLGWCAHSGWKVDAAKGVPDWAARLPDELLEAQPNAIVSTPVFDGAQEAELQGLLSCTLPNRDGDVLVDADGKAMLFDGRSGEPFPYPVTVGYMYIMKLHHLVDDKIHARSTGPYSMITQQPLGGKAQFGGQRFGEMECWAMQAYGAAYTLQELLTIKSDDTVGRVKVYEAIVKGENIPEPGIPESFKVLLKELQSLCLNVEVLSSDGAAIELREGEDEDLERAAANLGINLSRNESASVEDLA", "sequence (P9WGI1 whole entry, further chain)": "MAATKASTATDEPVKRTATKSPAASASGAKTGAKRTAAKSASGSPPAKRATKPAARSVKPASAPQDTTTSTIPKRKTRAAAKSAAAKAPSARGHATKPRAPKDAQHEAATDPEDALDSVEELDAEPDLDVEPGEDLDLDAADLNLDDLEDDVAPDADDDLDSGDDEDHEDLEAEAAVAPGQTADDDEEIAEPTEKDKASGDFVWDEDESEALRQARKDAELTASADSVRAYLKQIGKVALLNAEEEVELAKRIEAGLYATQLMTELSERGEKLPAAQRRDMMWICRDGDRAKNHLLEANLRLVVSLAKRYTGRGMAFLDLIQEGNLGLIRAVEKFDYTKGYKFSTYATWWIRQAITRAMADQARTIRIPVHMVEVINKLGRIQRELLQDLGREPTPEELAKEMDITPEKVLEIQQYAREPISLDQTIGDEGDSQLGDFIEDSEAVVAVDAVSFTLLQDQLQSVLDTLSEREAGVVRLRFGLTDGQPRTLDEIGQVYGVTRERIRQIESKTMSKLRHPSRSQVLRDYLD", "sequence (P9WGY7 whole entry)": "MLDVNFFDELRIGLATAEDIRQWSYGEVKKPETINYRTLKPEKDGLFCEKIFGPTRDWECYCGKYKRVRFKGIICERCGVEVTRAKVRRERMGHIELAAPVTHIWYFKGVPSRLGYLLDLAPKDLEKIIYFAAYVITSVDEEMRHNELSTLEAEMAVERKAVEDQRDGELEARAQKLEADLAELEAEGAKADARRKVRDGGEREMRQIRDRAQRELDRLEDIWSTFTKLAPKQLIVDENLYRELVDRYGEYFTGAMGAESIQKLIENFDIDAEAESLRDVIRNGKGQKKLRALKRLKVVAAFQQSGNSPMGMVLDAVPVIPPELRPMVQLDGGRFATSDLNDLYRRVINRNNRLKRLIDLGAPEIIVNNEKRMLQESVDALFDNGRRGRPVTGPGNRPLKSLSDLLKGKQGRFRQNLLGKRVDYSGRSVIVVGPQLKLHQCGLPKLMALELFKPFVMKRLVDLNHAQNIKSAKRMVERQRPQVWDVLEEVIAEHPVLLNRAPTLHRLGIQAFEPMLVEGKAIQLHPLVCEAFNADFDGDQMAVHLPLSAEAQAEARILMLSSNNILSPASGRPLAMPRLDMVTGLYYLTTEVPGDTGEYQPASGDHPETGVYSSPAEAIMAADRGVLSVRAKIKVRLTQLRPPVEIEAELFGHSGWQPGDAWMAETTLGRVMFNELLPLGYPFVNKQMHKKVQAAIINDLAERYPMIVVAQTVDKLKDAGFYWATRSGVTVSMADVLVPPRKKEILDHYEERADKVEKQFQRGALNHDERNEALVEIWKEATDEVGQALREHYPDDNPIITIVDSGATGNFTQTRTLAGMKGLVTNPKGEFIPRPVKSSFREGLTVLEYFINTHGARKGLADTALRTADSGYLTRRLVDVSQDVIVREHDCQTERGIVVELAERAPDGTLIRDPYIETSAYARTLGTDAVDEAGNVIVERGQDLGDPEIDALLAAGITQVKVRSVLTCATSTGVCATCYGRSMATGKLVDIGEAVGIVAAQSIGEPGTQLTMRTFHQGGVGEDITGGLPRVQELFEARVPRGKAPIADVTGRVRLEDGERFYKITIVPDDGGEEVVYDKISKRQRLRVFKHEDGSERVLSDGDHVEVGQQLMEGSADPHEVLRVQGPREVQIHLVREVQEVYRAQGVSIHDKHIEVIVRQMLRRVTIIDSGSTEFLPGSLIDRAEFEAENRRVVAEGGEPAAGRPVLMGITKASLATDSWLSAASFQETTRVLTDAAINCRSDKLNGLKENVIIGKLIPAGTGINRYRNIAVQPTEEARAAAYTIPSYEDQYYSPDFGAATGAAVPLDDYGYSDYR", "experiment": "Run-off transcription assay with Mycobacterium tuberculosis RNA polymerase (radiochemical)", "assay_type": "biochemical", "conditions": "IC50 Mycobacterium tuberculosis RNA polymerase"}, "[3]": {"test_system": "Mycobacterium tuberculosis H37Rv", "experiment": "Microplate Alamar Blue assay (MABA) MIC, M. tuberculosis", "assay_type": "cell-based", "conditions": "read-out: MIC Mycobacterium tuberculosis H37Rv", "text": "(§1) Minimal inhibitory concentrations (MICs) in Mycobacterium tuberculosis H37Rv and Mycobacterium avium ATCC 25291 were quantified using microplate Alamar Blue assays as described (MABA; [Collins, L. & Franzblau, S. (1997) Microplate Alamar Blue assay versus BACTEC 460 system for high-throughput screening of compounds against Mycobacterium tuberculosis and Mycobacterium avium. Antimicrob. Agents Chemother. 41, 1004-1009])."}, "[4]": {"test_system": "Mycobacterium smegmatis ATCC 19420", "experiment": "Broth microdilution MIC, M. smegmatis", "assay_type": "cell-based", "conditions": "Mycolicibacterium smegmatis, ATCC19420, M. smegmatis ATCC 19420; read-out: MIC Mycobacterium smegmatis ATCC 19420", "text": "(§2) MICs in Mycobacterium smegmatis ATCC 19420 and Mycobacterium smegmatis ATCC 19420 derivatives were quantified using broth microdilution assays as described [Clinical and Laboratory Standards Institute (CLSI/NCCLS) (2009) Methods for Dilution Antimicrobial Susceptibility Tests for Bacteria That Grow Aerobically; Approved Standard, Eighth Edition. CLIS Document M07-A8 (CLIS, Wayne Pa.)]."}, "[5]": {"molecular_target": "Escherichia coli RNA polymerase (Escherichia coli, UniProt P0A8T7+P0A8V2)", "experiment": "Analogous run-off transcription assay with Escherichia coli RNA polymerase", "assay_type": "biochemical", "conditions": "run-off transcription assays with Escherichia coli RNA polymerase; read-out: IC50 for inhibition of Escherichia coli RNA polymerase"}, "[6]": {"test_system": "Mycobacterium avium ATCC 25291", "experiment": "Microplate Alamar Blue assay (MABA) MIC, M. avium", "assay_type": "cell-based", "conditions": "ATCC25291, M. avium ATCC 25291", "text": "as §1"}, "[7]": {"test_system": "rifampin-resistant mutants, derivatives of M. smegmatis ATCC19420", "experiment": "MICs in rifampin-resistant mutants (cross-resistance levels)", "assay_type": "cell-based, Mycobacterium smegmatis", "text": "as §2"}, "[8]": {"test_system": "Vero E6 ATCC CRL1586 cells", "experiment": "Mammalian-cell cytotoxicity, minimal cytotoxic concentration (CellTiter96)", "assay_type": "cell-based", "experimental": "Minimal cytotoxic concentrations (MCCs) against mammalian cells in culture were determined using Vero E6 ATCC CRL1586 cells and the CellTiter96 assay kit (Promega, Inc.). […]"}}, "note": "pIC50: −log10 of the molar value."}
{"molecule": "O=C(NC(Cc1ccccc1)C(=O)Nc1cccc2[nH]ncc12)c1ccccc1", "note": "(stereo not drawn) [IX-37, N-(1-((1H-indazol-4-yl)amino)-1-oxo-3-phenylpropan-2-yl)benzamide]", "values": [{"measurement": "solubility", "setting": "physchem", "result": "> 10", "unit": "µM"}, {"measurement": "cross-resistance of AAP1-resistant mutants to the compound", "setting": "[1]", "result": "cross-resistance"}, {"measurement": "pIC50", "setting": "[2]", "result": 5.48}, {"measurement": "MIC", "setting": "[3]", "result": 12.5, "unit": "µg/mL"}, {"measurement": "MIC", "setting": "[4]", "result": 0.195, "unit": "µg/mL"}, {"measurement": "pIC50", "setting": "[5]", "result": 5.00}, {"measurement": "MIC", "setting": "[6]", "result": 12.5, "unit": "µg/mL"}, {"measurement": "cross-resistance of rifampin-resistant mutants to the compound", "setting": "[7]", "result": "No rifampin-resistant mutant was found to exhibit cross-resistance"}, {"measurement": "MCC mammalian cells Vero E6 ATCC CRL1586", "setting": "[8]", "result": 55, "unit": "µg/mL"}]}
